{
  "source": "PubChem BioAssay AID1259407",
  "about": "(Chemical Carcinogenesis Research Information System (CCRIS), 2018)",
  "tested_on": "CCRIS mutagenicity, Ames/micronucleus/aberration tests",
  "assay": "CCRIS mutagenicity studies",
  "key": {"[1]": {"conditions": "Test System: MOUSE LYMPHOMA, Strain/Indicator: L5178Y (TK+/TK-), Metabolic Activation: NONE, Method: SUSPENSION/PLATE"}, "[2]": {"conditions": "Test System: AMES SALMONELLA TYPHIMURIUM, Strain/Indicator: TA98, Metabolic Activation: NONE, Method: PREINCUBATION"}, "[3]": {"conditions": "Test System: AMES SALMONELLA TYPHIMURIUM, Strain/Indicator: TA100, Metabolic Activation: NONE, Method: PREINCUBATION"}},
  "note": "Calls of active or inactive are those of the source. How the calls were made is not given here.",
  "data": [
    {"compound": "O.O.O.[Fe].[Fe]", "values": [
      {"measurement": "mutagenic call", "setting": "Test System: AMES SALMONELLA TYPHIMURIUM, Strain/Indicator: TA97, Metabolic Activation: NONE, Method: PREINCUBATION", "result": "inactive; negative"},
      {"measurement": "mutagenic call", "setting": "Test System: AMES SALMONELLA TYPHIMURIUM, Strain/Indicator: TA97, Metabolic Activation: RAT, LIVER, S-9, AROCLOR 1254, Method: PREINCUBATION", "result": "inactive; negative"},
      {"measurement": "mutagenic call", "setting": "Test System: AMES SALMONELLA TYPHIMURIUM, Strain/Indicator: TA102, Metabolic Activation: NONE, Method: PREINCUBATION", "result": "inactive; negative"},
      {"measurement": "mutagenic call", "setting": "Test System: AMES SALMONELLA TYPHIMURIUM, Strain/Indicator: TA102, Metabolic Activation: RAT, LIVER, S-9, AROCLOR 1254, Method: PREINCUBATION", "result": "inactive; negative"}
    ]},
    {"compound": "Nc1ccc(N=Nc2ccccc2)c(N)n1", "values": [
      {"measurement": "mutagenic call", "setting": "End Point: IN VITRO CHROMOSOMAL ABERRATIONS, Test System: CHINESE HAMSTER OVARY CELLS, Metabolic Activation: NONE", "result": "active; positive (ploidy changes)"},
      {"measurement": "mutagenic call", "setting": "End Point: IN VITRO CHROMOSOMAL ABERRATIONS, Test System: CHINESE HAMSTER OVARY CELLS, Metabolic Activation: RAT, LIVER, S-9, AROCLOR 1254", "result": "active; positive; authors reported that all doses were toxic, but were scored because of"},
      {"measurement": "mutagenic call", "setting": "[1]", "result": "inactive; negative"},
      {"measurement": "mutagenic call", "setting": "Test System: MOUSE LYMPHOMA, Strain/Indicator: L5178Y (TK+/TK-), Metabolic Activation: RAT, LIVER, S-9, AROCLOR 1254, Method: SUSPENSION/PLATE", "result": "active; positive"},
      {"measurement": "mutagenic call", "setting": "Test System: UDS RAT HEPATOCYTES, Strain/Indicator: BROMODEOXYURIDINE INCORP, Metabolic Activation: NONE, Method: FLOW CYTOMETRIC ANALYSIS", "result": "active; positive"},
      {"measurement": "mutagenic call", "setting": "Test System: UDS RAT HEPATOCYTES, Strain/Indicator: THY INCORP, Metabolic Activation: NONE, Method: AUTORADIOGRAPHY", "result": "active; positive"}
    ]},
    {"compound": "O=Nn1cnc(CC(=O)NO)c1", "values": [
      {"measurement": "mutagenic call", "setting": "[2]", "result": "active; positive"},
      {"measurement": "mutagenic call", "setting": "[3]", "result": "active; positive"}
    ]},
    {"compound": "C[N+](=O)[O-]", "values": [
      {"measurement": "mutagenic call", "setting": "Test System: AMES SALMONELLA TYPHIMURIUM, Strain/Indicator: TA98, Metabolic Activation: HAMSTER, LIVER, S-9, AROCLOR 1254 (10%), Method: PREINCUBATION", "result": "inactive; negative"},
      {"measurement": "mutagenic call", "setting": "Test System: AMES SALMONELLA TYPHIMURIUM, Strain/Indicator: TA98, Metabolic Activation: HAMSTER, LIVER, S-9, AROCLOR 1254, FLAVIN MONONUCLEOTIDE, Method: PREINCUBATION", "result": "inactive; negative"},
      {"measurement": "mutagenic call", "setting": "[2]", "result": "inactive; negative"},
      {"measurement": "mutagenic call", "setting": "Test System: AMES SALMONELLA TYPHIMURIUM, Strain/Indicator: TA98, Metabolic Activation: RAT, LIVER, S-9, AROCLOR 1254 (10%), Method: PREINCUBATION", "result": "inactive; negative"},
      {"measurement": "mutagenic call", "setting": "Test System: AMES SALMONELLA TYPHIMURIUM, Strain/Indicator: TA98, Metabolic Activation: RAT, LIVER, S-9, KANECHLOR 500, Method: PREINCUBATION", "result": "inactive; negative"},
      {"measurement": "mutagenic call", "setting": "Test System: AMES SALMONELLA TYPHIMURIUM, Strain/Indicator: TA100, Metabolic Activation: HAMSTER, LIVER, S-9, AROCLOR 1254 (10%), Method: PREINCUBATION", "result": "inactive; negative"},
      {"measurement": "mutagenic call", "setting": "Test System: AMES SALMONELLA TYPHIMURIUM, Strain/Indicator: TA100, Metabolic Activation: HAMSTER, LIVER, S-9, AROCLOR 1254, FLAVIN MONONUCLEOTIDE, Method: PREINCUBATION", "result": "inactive; negative"},
      {"measurement": "mutagenic call", "setting": "[3]", "result": "inactive; negative"},
      {"measurement": "mutagenic call", "setting": "Test System: AMES SALMONELLA TYPHIMURIUM, Strain/Indicator: TA100, Metabolic Activation: RAT, LIVER, S-9, AROCLOR 1254 (10%), Method: PREINCUBATION", "result": "inactive; negative"},
      {"measurement": "mutagenic call", "setting": "Test System: AMES SALMONELLA TYPHIMURIUM, Strain/Indicator: TA100, Metabolic Activation: RAT, LIVER, S-9, KANECHLOR 500, Method: PREINCUBATION", "result": "inactive; negative"},
      {"measurement": "mutagenic call", "setting": "Test System: AMES SALMONELLA TYPHIMURIUM, Strain/Indicator: TA1535, Metabolic Activation: HAMSTER, LIVER, S-9, AROCLOR 1254 (10%), Method: PREINCUBATION", "result": "inactive; negative"},
      {"measurement": "mutagenic call", "setting": "Test System: AMES SALMONELLA TYPHIMURIUM, Strain/Indicator: TA1535, Metabolic Activation: NONE, Method: PREINCUBATION", "result": "inactive; negative"},
      {"measurement": "mutagenic call", "setting": "Test System: AMES SALMONELLA TYPHIMURIUM, Strain/Indicator: TA1535, Metabolic Activation: RAT, LIVER, S-9, AROCLOR 1254 (10%), Method: PREINCUBATION", "result": "inactive; negative"},
      {"measurement": "mutagenic call", "setting": "Test System: AMES SALMONELLA TYPHIMURIUM, Strain/Indicator: TA1537, Metabolic Activation: HAMSTER, LIVER, S-9, AROCLOR 1254 (10%), Method: PREINCUBATION", "result": "inactive; negative"},
      {"measurement": "mutagenic call", "setting": "Test System: AMES SALMONELLA TYPHIMURIUM, Strain/Indicator: TA1537, Metabolic Activation: NONE, Method: PREINCUBATION", "result": "inactive; negative"},
      {"measurement": "mutagenic call", "setting": "Test System: AMES SALMONELLA TYPHIMURIUM, Strain/Indicator: TA1537, Metabolic Activation: RAT, LIVER, S-9, AROCLOR 1254 (10%), Method: PREINCUBATION", "result": "inactive; negative"},
      {"measurement": "mutagenic call", "setting": "Test System: E. COLI, Strain/Indicator: WP2 UVRA (PKM101), Metabolic Activation: NONE, Method: PREINCUBATION", "result": "inactive; negative"},
      {"measurement": "mutagenic call", "setting": "Test System: E. COLI, Strain/Indicator: WP2 UVRA (PKM101), Metabolic Activation: RAT, LIVER, S-9, KANECHLOR 500, Method: PREINCUBATION", "result": "inactive; negative"},
      {"measurement": "mutagenic call", "setting": "[1]", "result": "active; positive. reevaluation of results: equivocal"},
      {"measurement": "mutagenic call", "setting": "Test System: Mouse lymphoma, Strain/Indicator: L5178Y (tk+/tk-), Metabolic Activation: Rat, Liver, S-9, Aroclor 1254, Method: Suspension/plate", "result": "inactive; negative"}
    ]}
  ]
}
